Reference: patent US10179789B2, “Methylenedioxybenzo [I] phenanthridine derivatives used to treat cancer” (Rutgers, The State University of New Jersey, priority 2009, dated 2019)

Key:
human topoisomerase I = biological target: T1, human topoisomerase I (Homo sapiens, UniProt P11387); assay: Test A. Topoisomerase I-mediated DNA cleavage assay; type: biochemical; conditions: Relative Effective Concentration; relative to camptothecin arbitrarily assumed as 0.2; same 10% cleavage on plasmid DNA
T1 construct: unnamed fusion partner (recombinant fusion protein, T7 expression system); made in house; host or cells: Escherichia coli
T1 sequence (P11387 1-765): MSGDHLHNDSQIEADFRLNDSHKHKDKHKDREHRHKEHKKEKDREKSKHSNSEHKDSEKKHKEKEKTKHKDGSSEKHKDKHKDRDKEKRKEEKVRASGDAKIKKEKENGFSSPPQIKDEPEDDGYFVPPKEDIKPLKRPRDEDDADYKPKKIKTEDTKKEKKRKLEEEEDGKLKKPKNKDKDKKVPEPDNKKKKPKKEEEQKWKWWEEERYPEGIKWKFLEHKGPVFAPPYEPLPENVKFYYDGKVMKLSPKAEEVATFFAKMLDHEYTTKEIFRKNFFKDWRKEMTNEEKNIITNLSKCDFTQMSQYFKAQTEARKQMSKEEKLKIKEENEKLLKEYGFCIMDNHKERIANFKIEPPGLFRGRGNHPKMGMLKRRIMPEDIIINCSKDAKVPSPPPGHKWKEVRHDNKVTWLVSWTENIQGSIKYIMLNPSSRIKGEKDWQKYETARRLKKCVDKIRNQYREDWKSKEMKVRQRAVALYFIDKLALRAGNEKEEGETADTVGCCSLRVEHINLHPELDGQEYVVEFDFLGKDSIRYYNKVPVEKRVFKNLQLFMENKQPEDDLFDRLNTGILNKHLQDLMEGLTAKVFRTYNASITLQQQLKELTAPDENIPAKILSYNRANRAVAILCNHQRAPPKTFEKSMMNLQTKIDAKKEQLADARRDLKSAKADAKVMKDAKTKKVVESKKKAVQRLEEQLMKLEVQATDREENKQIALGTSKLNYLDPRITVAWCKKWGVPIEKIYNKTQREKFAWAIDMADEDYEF
Excerpt: Test A. Topoisomerase I—Mediated DNA Cleavage Assay Human topoisomerase I was expressed in Escherichia coli and isolated as a recombinant fusion protein using a T7 expression system as described previously (31). Plasmid YepG was also purified by the alkali lysis method followed by phenol deproteination and CsCl/ethidium isopycnic centrifugation method as described (32). The 3′ end labeling of the plasmid was accomplished by digestion with a restriction enzyme followed by end filling with Klenow polymerase as previously described (33). The cleavage assays were performed as previously reported (34,35). The drug and the DNA in presence of topoisomerase I was incubated for 30 min at room temperature. The reactions were terminated by the addition of 5 μL of 5% SDS and 1 mg/mL […] with an additional 1 h of incubation at 37° C. […] After development of the gels, typically 24-h exposure was used to obtain autoradiograms outlining the extent of DNA fragmentation. Topoisomerase I-mediated DNA cleavage values are reported as Relative Effective Concentration (REC). […] Results for the assay for representative compounds of the invention of formula I along with comparison compounds are shown in Table 1.

[1] = system: RPMI 8402 human lymphoblast cells; assay: Test B. MTT cytotoxicity assay, RPMI8402; type: cell-based
Description: (§1) Test B. Cytotoxic Assays (Cancer Cell Lines and Efflux Transporter Cell Lines)
(§2) The cytotoxicity was determined using the MTT-microtiter plate tetrazolinium cytotoxicity assay (MTA). The human lymphoblast RPMI 8402 and its camptothecin-resistant variant cell line, CPT-K5 was provided by Dr. Toshiwo Andoh (Aichi Cancer Center Research Institute, Nagoya, Japan). (36) The P388 mouse leukemia cell line and its CPT-resistant TOP1-deficient variant P388/CPT45 (37) were obtained from Michael R. Mattern and Randal K. Johnson (GlaxoSmithKline, King of Prussia, Pa.). The KB3-1 cell line and its multidrug-resistant variant KBV-1 (38) were obtained from K. V. Chin (The Cancer Institute of New Jersey, New Brunswick, N.J.). The KBH5.0 cell line as noted previously (21) was derived from KB3-1 by stepwise selection against Hoechst 33342. The cytotoxicity assay was performed using 96-well microtiter plates. Cells were grown in suspension at 37° C. in 5% CO2 and maintained by regular passage in RPMI medium supplemented with 10% heat inactivated fetal bovine serum, L-glutamine (2 mM), penicillin (100 U/mL), and Streptomycin (0.1 mg/mL). For determination of IC50, cells were exposed continuously for FOUR days to varying concentrations of drug, and MTT assays were performed at the end of the fourth day. […] All assays were performed at least twice in six replicate wells.

[2] = system: CPT-K5 (camptothecin-resistant variant of RPMI 8402); assay: Test B. MTT cytotoxicity assay, CPT-K5; type: cell-based, human
Description: as §1, §2

[3] = system: P388 mouse leukemia cell line; assay: Test B. MTT cytotoxicity assay, P388; type: cell-based
Description: as §1, §2

[4] = system: P388/CPT45 (CPT-resistant TOP1-deficient variant of P388); assay: Test B. MTT cytotoxicity assay, P388/CPT45; type: cell-based, mouse
Description: as §1, §2

KB3-1 cell line = assay: Cytotoxicity on KB3-1 (parent cell line); type: cell-based
Description: as §2
(§3) The cytotoxicity of the representative compounds of the invention were also tested on cell line KB3-1 (parent cell line), KBV-1 (a variant that overexpresses efflux transporter MDR1) and KBH5.0 (a variant that overexpresses BCRP). Differences in the relative cytotoxicity between the parent and variant cell lines may be indicative of a compound that is a substrate for an efflux transporter. […] Accordingly, compounds of the invention of formula I may be useful to treat tumors that are resistant to other anticancer agents, especially anticancer agents that are susceptible to efflux by BCRP (e.g. anthracyclines, mitoxantrone, topotecan, irinotecan, bisanthrone, doxorubicin, daunorubicin, and epirubin.

[5] = system: KBV-1 (variant that overexpresses efflux transporter MDR1); assay: Cytotoxicity on KBV-1 (overexpresses MDR1); type: cell-based
Description: as §2, §3

[6] = system: KBH5.0 (variant that overexpresses BCRP); assay: Cytotoxicity on KBH5.0 (overexpresses BCRP); type: cell-based
Description: as §2, §3

COc1cc2c(C(=O)NCC(C)(C)N(Cc3ccccc3)Cc3ccccc3)cc3c4cc5c(cc4ncc3c2cc1OC)OCO5 [Compound 32, N-(2-(Dibenzylamino)-2-methylpropyl)-2,3-dimethoxy-8,9-methylene-dioxybenzo[i]phenanthridine-12-carboxamide]
TOP1 Mediated DNA Cleavage (REC Value) (human topoisomerase I): 1.5 | IC50 [1]: 60 nM | IC50 [2]: 5000 nM | IC50 [3]: 30 nM | IC50 [4]: 1300 nM | IC50 (KB3-1 cell line): 20 nM | IC50 [5]: 2900 nM | IC50 [6]: 600 nM
